In PMC8224802 (Pharmaceutics, 2021):
Where two headings read alike, the source gives them in different places.

How the values were obtained:
[1] = tested on: microsomal metabolism of RPG (repaglinide); assay: In vitro inhibition of RPG metabolism by QCT in RLM; assay type: in vitro ADME, rat; settings: rat, rat liver microsomes
Procedure: (§1) The intrinsic metabolic clearance (CLint) was calculated as Vmax/Km. […] The parameter α is indicative of the inhibition type. The mixed model is a general equation that includes competitive, uncompetitive, and noncompetitive inhibition as special cases. When α = 1, the mixed model is identical to a noncompetitive inhibition. When α is very large (α→∞) or very small (α→0), the mixed model becomes identical to competitive inhibition or uncompetitive inhibition, respectively.

[2] = tested on: microsomal metabolism of RPG in RLM; assay: as above; assay type: in vitro ADME, rat
Procedure: as §1

[3] = tested on: CYP3A4; set-up: method as in PMID 28232125; settings: read-out: Ki of QCT for CYP3A4 activity; cited from earlier work
[4] = tested on: microsomal metabolism of RPG (repaglinide); assay: In vitro inhibition of RPG metabolism by QCT in HLM; assay type: in vitro ADME, human; settings: human, human liver microsomes
Procedure: as §1

[5] = tested on: microsomal metabolism of RPG in HLM; assay: as above; assay type: in vitro ADME, human
Procedure: as §1

[6] = Plasma protein binding by rapid equilibrium dialysis (human plasma); assay type: in vitro ADME; settings: human, plasma (20-fold diluted); Table S3, in-house; species not printed (clinical prediction); read-out: fu,QCT
Procedure: (§2) A 200 μL spiked samples and 400 μL PBS were placed into the “sample” and “buffer” chambers of the RED device, respectively. After 4-h incubation to equilibrate between the buffer and plasma compartments, the RED plate was sampled from both compartments. The samples were matrix-matched for analysis by addition of either diluted plasma or buffer; (a) blank diluted plasma added to the buffer samples and (b) blank buffer added to the diluted plasma sample, at a ratio of 50:50 v/v. The unbound fractions in microsomes and diluted plasma were determined by dividing the analyte/IS peak area ratios of the (a) sample by those of the (b) sample. The unbound fraction in diluted plasma (fu,d) was converted to the unbound fraction in undiluted plasma (fu) using a Kalvass equation as below (DF: dilution factor). (1) fu=1/DF/[(1/fu,d)−1]+1/DF

[7] = In vivo oral pharmacokinetic study of RPG without or with QCT in rats; set-up: species or system Sprague-Dawley rats; settings: rats, oral QCT 100 mg/kg
Procedure: Rats were anesthetized via intramuscular injection of 10 mg/kg zoletil. The femoral vein and artery of the rats were cannulated using a polyethylene tube (BD Medical, Franklin Lakes, NJ, USA). […] The vehicle solutions for the intravenous and oral doses were composed of PEG 400 and aqueous 0.3% CMC solution (50:50 v/v).
For comparison, the extent of absolute oral bioavailability (F; expressed as percent of dose administered) was calculated by dividing the dose-normalized AUC after oral administration by the dose-normalized AUC after intravenous injection. The peak plasma concentration (Cmax) and time to reach Cmax (Tmax) were obtained directly from the measured experimental data.

[8] = Microsomal protein binding by rapid equilibrium dialysis (HLM); settings: human, microsomes
Procedure: as §2

[9] = tested on: in vitro metabolism of RPG in HLM; settings: cited from earlier work
[10] = set-up: method as in earlier work; settings: Table S3, ref [1] of the supplement (Ganio et al., 2010); cited from earlier work
[11] = healthy subjects, cited from earlier work
[12] = cited from earlier work
[13] = probe RPG (repaglinide), 1, 3, 10, 30 and 100 μM

For O=c1c(O)c(-c2ccc(O)c(O)c2)oc2cc(O)cc(O)c12 [QCT, Quercetin], the IC50 at 60 min ([1]; probe RPG (repaglinide), 3 μM) was […], the Ki at 60 min [1, 13] was 72 µM and the “Type of inhibition of RPG metabolism by QCT” value ([2]; RLM, Dixon plot and model fit) was “mixed inhibition”. For the same molecule, the “Inhibition potency of QCT on hepatic metabolism of RPG in vitro” value ([2]; rats (RLM)) was “weak”, the Ki [3] was […] and the IC50 ([4]; probe RPG (repaglinide), 3 μM, IC50 of QCT on the microsomal metabolism of RPG, HLM 0.5 mg/mL, 3 μM RPG) was 3 µM. The Ki [4, 13] was 24.2 µM, the Ki ([4]; probe RPG (repaglinide), Table S3, S = 5 μM, read-out: Calculated Ki, (fu,mic,QCT × IC50) / (S / Km + 1)) was 0.534 µM and the “Type of inhibition of RPG metabolism by QCT” value ([5]; HLM, Dixon plot and model fit) was “mixed inhibition”. For the same molecule, the IC50 ([5]; Table S3, source Figure 4, read-out: IC50 used for estimation of R) was 1.66 µM, the “Inhibition potency of QCT on hepatic metabolism of RPG in vitro” value ([5]; humans (HLM)) was “moderate” and the IC50 ([5]; read-out: IC50 of QCT on the microsomal metabolism of RPG, HLM 0.5 mg/mL, 3 μM RPG) was 3.03 ± 1.84 µM. The fraction unbound at 4 h, 5 μM [6] was 0.0462, the “Classification of QCT as inhibitor of in vivo metabolism and systemic exposure of RPG” value [7] was “weak inhibitor” and the fraction unbound at 4 h, 5 μM [8] was 0.381. For the same molecule, the “Inhibition of in vitro metabolism of RPG” value ([9]; QCT 25 μM, RPG 0.2 μM) was 58%, the “Effect of QCT on metabolism of RPG in HLM” value ([9]; RPG 0.2 and 2 μM, QCT 25 μM) was “significantly inhibited” and the Ki ([9]; read-out: Ki for the inhibitory effect of QCT on in vitro metabolism of RPG) was 0.61 µM. For the same molecule, the “Imax,u (maximum unbound plasma concentration of QCT)” value [10] was […].

For Cn1c(=O)c2c(ncn2C)n(C)c1=O [caffeine], the “Effect of oral QCT on systemic exposure (AUC and/or Cmax)” value ([11]; QCT 500 mg/day for 14 days) is given as “significantly increased”.

For COC(=O)[C@H](c1ccccc1Cl)N1CCc2sccc2C1 [clopidogrel], the “Increase of systemic exposure to orally administered RPG by CYP2C8 inhibitors” value [12] is given as 3.1–5.1 fold.

For CCC(C)n1ncn(-c2ccc(N3CCN(c4ccc(OCC5COC(Cn6cncn6)(c6ccc(Cl)cc6Cl)O5)cc4)CC3)cc2)c1=O (stereo not shown) [itraconazole], the “Increase of systemic exposure to orally administered RPG by CYP3A4 inhibitors” value [12] is listed as 1.4 fold.

In the case of CN(CCOc1ccc(CC2SC(=O)NC2=O)cc1)c1ccccn1 (stereo not shown) [rosiglitazone], the “Effect of oral QCT on the pharmacokinetics of rosiglitazone” value ([11]; QCT 500 mg/day for 21 days) is given as “did not significantly change”.

In the case of CC[C@H]1OC(=O)[C@H](C)C(=O)[C@H](C)[C@@H](O[C@@H]2O[C@H](C)C[C@H](N(C)C)[C@H]2O)[C@](C)(OC)C[C@@H](C)C(=O)[C@H](C)[C@H]2N(CCCCn3cnc(-c4cccnc4)c3)C(=O)O[C@]12C [telithromycin], the “Increase of systemic exposure to orally administered RPG by CYP3A4 inhibitors” value [12] is listed as 1.8 fold.

In the case of COc1cc(Cc2cnc(N)nc2N)cc(OC)c1OC [trimethoprim], the “Increase of systemic exposure to orally administered RPG by CYP2C8 inhibitors” value [12] is listed as 1.6–2 fold.
